From PMC10120551, “Novel Glu-based pyrazolo[3,4-d]pyrimidine analogues: design, synthesis and biological evaluation as DHFR and TS dual inhibitors” (Journal of Enzyme Inhibition and Medicinal Chemistry, 2023)

Experiments:
[1] = system: full panel of 59 cancer cells; experiment: NCI one-dose screen (SRB), full panel; type: cell-based, human; conditions: mean over full panel of 59 cell lines, 10 µM single dose; for inhibition at 10 µM: Homo sapiens, read-out: MGI% (mean growth inhibition percentage)
Procedure: The growth percentage (G%) and cell viability of the herein target compounds 6a–l, 7a,b, and 9a–c have been screened towards a full panel of 59 cancer cells at NCI’s Developmental Therapeutics Program (NCI-DTP, MD, USA)[21]. The submitted analogues were initially examined for preliminary in vitro anticancer activity using sulforhodamine B (SRB) assay at 10 µM as a single dose to evaluate cell growth and viability according to the procedure of Drug Evaluation Branch[22]^,[23].
Different types of tumours – colon, NSCLC, leukaemia, CNS, renal, breast, ovarian, melanoma, and prostate cancers – were investigated as a full panel of 59 cell lines, and the attained results are cited in Figures S1–S17 (see Supplementary Material) where the value recorded is the growth relative to that of both the negative control and zero-time number of cells in which both growth inhibition (GI%; 0–100%) and lethality (L%; 0–100%) percentages can be identified. The growth inhibition means percentages (MGI%) for the examined target analogues towards the different treated 59 cancer cells were presented in Figure 2.
The designed analogues were submitted to NCI-Chemotherapeutic Agents Repository (MD, USA) for screening on a panel of 59 cancer cell lines. All compounds were initially examined at 10 µM concentration (Single-Dose Screen), and then the most efficient analogue 6i was screened further at 0.01–100 µM (Five-Dose Screen). The screening procedures were performed according to NCI-Drug Evaluation Branch protocol using SRB protein assay, as described previously[21]^,[66]. The experimental procedures were detailed in the Supporting Information.

[2] = system: HSF (Normal human skin fibroblast) cells; experiment: MTT cytotoxicity assay; type: cell-based; conditions: HSF normal fibroblasts, 48 h, mean ± SD from triplicates
Procedure: The results hinted that 6i elicited stronger cytotoxicity and higher selectivity for cancer than normal cells.
(§1) The MTT assay was carried out according to the procedure cited earlier. Briefly, in a 96-well plate, either cancer or normal cells were seeded (10^6 cells/cm^2; 100 µL/well) and incubated for 12 h at 37 °C and CO2 (5%), then serial dilutions of compound 6i were added and incubated for 48 h using DMSO control (0.5% V/V). MTT (3-(4,5-dimethylthiazoyl)-2,5-diphenyl-tetrazolium bromide; Cat. No. M-5655) 5 mg/mL was then added. After 4 h incubation, the formed MTT formazan crystals were solubilised by 10% Triton X-100 plus 0.1 N HCl in anhydrous isopropanol. The absorbance was read using a Bioline plate reader at λ570–630 nm[25–29]. The selectivity of 6i towards HSF cells was also determined as follows[30]^,[31]: SI=IC50HSF cells/IC50of cancer cells

PC-3 (Prostate cancer) = experiment: MTT cytotoxicity assay; type: cell-based, human; conditions: Homo sapiens; PC-3; MTT, 48 h; mean ± SD from triplicates
Procedure: as §1

MCF-7 (Breast cancer) = experiment: MTT cytotoxicity assay; type: cell-based, human; conditions: Homo sapiens, MCF7; MCF-7; MTT, 48 h; mean ± SD from triplicates
Procedure: as §1

OVCAR-3 (Ovarian Cancer) = experiment: MTT cytotoxicity assay; type: cell-based, human; conditions: Homo sapiens, OVCAR-3, 48 h, OVCAR-3; MTT, 48 h; mean ± SD from triplicates
Procedure: as §1

CCOC(=O)CC[C@H](NC(=O)c1ccc(NC(=O)CSC2=NC(C)=C(C(=O)OCC)[C@@H](c3ccc(Cl)cc3)N2)cc1)C(=O)OCC [Compound 9b]
inhibition at 10 µM [1]: 33.9%

CCOC(=O)CC[C@H](NC(=O)c1ccc(NC(=O)CSC2=NC(C)=C(C(=O)OCC)[C@@H](c3ccc(Br)cc3)N2)cc1)C(=O)OCC [Compound 9c]
inhibition at 10 µM [1]: 36.9%

CCOC(=O)CC[C@H](NC(=O)c1ccc(NC(=O)Cn2cnc3c(c(SC)nn3-c3ccc(Br)cc3)c2=O)cc1)C(=O)OCC [Compound 6k]
MGI% (mean growth inhibition percentage) [1]: failed to demonstrate MGI%

CN(Cc1cnc2nc(N)nc(N)c2n1)c1ccc(C(=O)N[C@@H](CCC(=O)O)C(=O)O)cc1 [MTX, methotrexate, reference compound]
IC50 [2]: 13.7 ± 0.69 µM
IC50 (PC-3 (Prostate cancer)): 2.72 ± 0.14 µM
IC50 (MCF-7 (Breast cancer)): 0.58 ± 0.03 µM
IC50 (OVCAR-3 (Ovarian Cancer)): 6.31 ± 0.32 µM
